# Assay results: paper PMC11850616, “Nanomolar inhibitor of the galectin-8 N-terminal domain binds via a non-canonical cation-π interaction” (Communications Chemistry, 2025)
# Values joined by “and” are separate entries in the source; they are usually repeats but may differ in a detail not shown here. Equal values may be shown once.
# What was measured:
# Gal-8C = target: T1, Gal-8C (Homo sapiens, UniProt O00214); parameters: method as in PMID 34225180; conditions: cited from earlier work
# T1 construct: than to the C-terminal domain (Gal-8C)
# T1 sequence (O00214 187-317 limits assumed): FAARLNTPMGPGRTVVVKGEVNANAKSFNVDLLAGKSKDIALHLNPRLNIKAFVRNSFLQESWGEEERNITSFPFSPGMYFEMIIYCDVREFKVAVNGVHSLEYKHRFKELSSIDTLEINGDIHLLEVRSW
# Gal-1 = target: T2, Gal-1 (Homo sapiens, UniProt P09382); parameters: method as in PMID 34225180; conditions: cited from earlier work
# T2 construct: made in house
# Gal-8N = target: T3, Gal-8N (Homo sapiens, UniProt O00214); assay: isothermal titration calorimetry (ITC), binding to Gal-8N
# T3 construct: consisting of residues 4-158 was produced by Lund Protein Production Platform; made in house; host or cells: E. coli TUNER(DE3)
# T3 sequence (O00214 4-158): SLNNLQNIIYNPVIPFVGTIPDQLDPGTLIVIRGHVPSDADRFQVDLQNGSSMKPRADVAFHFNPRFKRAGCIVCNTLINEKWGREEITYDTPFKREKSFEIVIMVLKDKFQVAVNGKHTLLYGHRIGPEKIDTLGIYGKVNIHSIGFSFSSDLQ
# Method: Isothermal titration calorimetry (ITC) experiments were conducted using a Microcal PEAQ-ITC isothermal titration calorimeter (Malvern Instruments, Malvern Panalytical Ltd) at 25 °C. Lyophilized Gal-8N was first dissolved in PBS buffer (with a 4.3 mM β-mercaptoethanol) with a pH = 7.4 and Gal-8N was dialyzed with a 0.5–3 mL Slide-A-Lyzer™ 7k MWCO Dialysis Cassette in the same buffer. To remove residual lactose, Gal-8N was additionally purified using Superdex 75 Increase column equilibrated in PBS with 5% DMSO. Fractions containing Gal-8N were collected and concentrated with Amicon® Ultra-0.5 Centrifugal Filter Device with a 10k MWCO to a final concentration of about 40 µM. A280 was measured using the NanoDrop^TM One Microvolume UV-VIS spectrophotometer and the concentration of Gal-8N was calculated (ε = 11460 L mol^−1 cm^−1 was used). 16 mM stock solutions of 1, 11, and 29 were prepared in pure DMSO. The 16 mM stock solutions were diluted to 800 μM with pure PBS and then to the final concentration of 560 μM (the final content of DMSO was 5%). Titrations were performed with 19 injections of Gal-8N inhibitors 1, 11 (560 μM) and 29 (800 μM) with a following settings: reference power = 10.0 µcal s^−1, feedback = high, stir speed = 750, Initial delay = 100 s, first spacing = 200 s, the other spacings = 150 s.
# Raw thermograms were exported and integrated with the NITPIC (version 2.0.7)[43] and then analyzed with SEDPHAT (version 15.2)[44],[45]. Parameter and error analysis were performed using the Monte-Carlo approach for nonlinear regression with 1000 iterations as implemented in SEDPHAT.
# Gal-3 = target: T4, Gal-3 (Homo sapiens, UniProt P17931); conditions: selectivity for Gal-8N over Gal-3 (fold); cited from earlier work
# T4 construct: made in house
# [1] = target: T5, Gal-8N (galectin-8 N-terminal domain) (Homo sapiens, UniProt O00214); conditions: cited from earlier work
# T5 construct: made in house
# T5 sequence (O00214 19-152 limits assumed): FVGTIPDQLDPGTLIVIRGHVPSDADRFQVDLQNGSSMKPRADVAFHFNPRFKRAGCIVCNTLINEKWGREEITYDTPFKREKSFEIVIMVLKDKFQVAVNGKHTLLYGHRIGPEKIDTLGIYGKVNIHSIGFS
# [2] = 25 °C, PBS buffer, 1:1 binding model, n = 2
# T2 sequence (P09382 whole entry): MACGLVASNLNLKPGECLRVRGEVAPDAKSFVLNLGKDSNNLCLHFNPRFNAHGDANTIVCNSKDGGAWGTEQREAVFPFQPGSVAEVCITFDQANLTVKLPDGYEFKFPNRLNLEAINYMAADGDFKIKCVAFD
# T4 sequence (P17931 whole entry): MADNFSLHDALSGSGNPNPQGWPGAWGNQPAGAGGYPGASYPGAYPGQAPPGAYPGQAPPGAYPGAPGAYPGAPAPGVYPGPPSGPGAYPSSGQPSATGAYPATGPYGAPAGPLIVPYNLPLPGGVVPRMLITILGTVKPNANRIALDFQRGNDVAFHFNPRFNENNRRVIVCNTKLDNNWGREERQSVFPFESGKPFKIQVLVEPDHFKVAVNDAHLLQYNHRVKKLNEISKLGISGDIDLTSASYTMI
smiles,measurement,setting,value
"Cn1c(CO[C@@H]2[C@@H](O)[C@@H](Sc3ccc(Cl)c(Cl)c3)O[C@H](CO)[C@@H]2O)nc2ccc(C(=O)O)cc21 [Compound 1, reference compound]",Gal-8C selectivity ratio Kd (Gal-8C)/Kd (Gal-8N),Gal-8C,422
same,Gal-1 selectivity ratio Kd (Gal-1)/Kd (Gal-8N),Gal-1,72
same,-TΔS,Gal-8N; [2],3.35 kcal/mol and 3.35 ± 3.11 kcal/mol
same,Kd,Gal-8N; [2],5 µM
same,ΔG,Gal-8N; [2],-7.22 kcal/mol and -7.22 ± 0.14 kcal/mol
same,ΔH,Gal-8N; [2],-10.5 kcal/mol and -10.5 ± 2.87 kcal/mol
same,-TΔS,Gal-8N; TRIS buffer,4.54 kcal/mol
same,Kd,Gal-8N; TRIS buffer,4.5 µM
same,ΔG,Gal-8N; TRIS buffer,-7.34 kcal/mol
same,ΔH,Gal-8N; TRIS buffer,-12 kcal/mol
same,Gal-3 selectivity ratio Kd (Gal-3)/Kd (Gal-8N),Gal-3,2.8
same,fold more potent than D-galactose (Gal-8N),[1],~ 5000 fold
